Measurements taken from patent US11192888B2, “Antibacterial compounds” (priority 2017, dated 2021).
*1 amine or outer side, *2 acyl side, *3 side chain or, on linkers, in order; H or OH if unused. Where a SMILES comes first, the peptide text is derived from it. [ ]: non-standard residue; d: D form. dAla(ψthiazole) = C[C@@H](N[*:1])c1nc(C(=O)[*:2])cs1; Trp(4-Br) = N[C@@H](Cc1c[nH]c2cccc(Br)c12)C(=O)O; Dhb = C/C=C(\N)C(=O)O; Sar = CNCC(=O)O

Experiments:
[1] = test system: Lactobacillus rhamnosus ATCC 53103
[2] = test system: Pseudomonas aeruginosa NCTC 13437
[3] = test system: Pseudomonas aeruginosa ATCC 27853
[4] = test system: Bifidobacterium bifidum ATCC 11863
[5] = test system: Clostridium ramosum DSM 1402
[6] = test system: Corynebacterium jeikeium NCTC 11914

Measured: MIC

C/C=C1\NC(=O)[C@@H](C)NC(=O)CNC(=O)[C@H](Cc2c[nH]c3cccc(Br)c23)NC(=O)[C@H](Cc2c[nH]c3ccccc23)NC(=O)c2csc(n2)[C@@H](C)NC(=O)CN(C)C1=O [Compound 10, Cyclo[D-Ala-Thz-Trp-Trp(4-Br)-Gly-D-Ala-Dhb-Sar]] (cyclo([Dhb][Sar][dAla(ψthiazole)]W[Trp(4-Br)]G[dA]))
>64 µg/mL: all assays above
